Assay results reported in patent publication US10143747B2, “Breast cancer therapeutics” (IMBA—INSTITUT FÜR MOLEKULARE BIOTECHNOLOGIE GMBH, priority 2010, dated 2018).

Assays:
[1] = test system: human breast cancer cells as well as cultured MECs; experiment: RANKL mRNA expression in human breast cancer cells and cultured MECs after MPA stimulation in vitro; type: cell-based; conditions: MPA 0.1 μM
Procedure: a, Analysis of RANKL mRNA expression in human breast cancer cells as well as cultured MECs after MPA stimulation (0.1 μM). Expression was determined by qRT-PCR in unstimulated cells or cells stimulated with MPA for the indicated time points. […] Data were obtained by qRT-PCR and are shown as fold change compared to MCF10A (b) and purified primary MECs (c) (+/−sem) (n=3).
MPA (medroxyprogesterone acetate, a representive progestin) pellets were implanted into female mice and RANKL expression was assayed. […] Since MPA can induce transcription of prolactin and the prolactin receptor in breast cancer cells and prolactin can directly induce RANKL via Jak2/Stat5 signaling, it was tested whether MPA induces RANKL in the mammary gland of prolactin receptor knock-out mice.

RANKL [2] = experiment: RANKL protein in mammary gland / isolated mammary epithelial cells (immunostaining, Western blot) after MPA implantation; type: in vivo, mouse
Procedure: (§1) a,b, Induction of RANKL expression by the progesterone-derivative MPA. Nulliparous wild type females were s.c. implanted with slow-release MPA pellets or treated with surgery sham. a, RANKL mRNA was determined in purified mammary epithelial cells by qRT-PCR three days after implantation. Data are shown as fold change compared to sham treatment (+/−sem) (n=3). b, In situ […] immunostaining of progesterone receptor (PR, red) and RANKL (green) in mammary epithelial cells after 3d MPA treatment. c, Induction of soluble RANKL protein assayed on isolated mammary gland epithelial cells from control, but not in prolactin receptor mutant (PRL-R KO) females on day 3 after s.c. MPA implantation. Mammary glands from sham operated control litter-mates and PRL-R KO females are shown as controls. d, Epithelial proliferation in mammary glands of control littermates and RANK^Δmam females 3 days after sham treatment and MPA implantation. Proliferation was determined by in situ Ki67 immunostaining. e,f, Marked increase of the stem cell-enriched CD24^+CD49^high population (MaSC) in MPA-treated mammary glands in control but not in RANK^Δmam mammary glands. e, Representative FACS profiles showing CD24 and CD49 expression of lineage negative (CD31^− (endothelial cells) CD45^− (hematopoietic cells) […] (erythroid cells)) of mammary MaSCs from MPA- or sham-treated 8-week old virgin females. f, Quantification of MaSC-enriched CD24^+CD49^high population from mammary glands of MPA- or sham-treated virgin RANK^Δmam and littermate control females. For all MaSCs experiments mice were treated with MPA for 3 days. n=4 per group+/−sem. *P<0.05; ***P<0.001 (Student's t-test).
a-d, Induction of RANKL expression by the progesterone-derivative MPA. Nulliparous wild type females were s.c. implanted with slow-release MPA pellets or treated with surgery sham. a, Expression of transmembrane (tm) and soluble (s) RANKL protein was assayed on isolated mammary gland epithelial cells by Western blot 3 and 6 days after MPA pellet implantation or sham surgery. β-actin is shown as a loading control. Recombinant murine sRANKL and recombinant human tmRANKL protein are shown for molecular size comparison in the right panels. […] Numbers indicate amino acid residues. c, Expression of total (t) RANKL, RANKL1, RANKL2, and RANKL3 mRNA in purified mammary epithelial cells after three days MPA treatment. β-actin is shown as a control. d, Representative agarose gel of RT-PCR products as in c. e, mRNA expression of various proteases known to shed RANKL from the surface of cells. mRNA was determined in purified mammary epithelial cells by qRT-PCR three days after MPA implantation. […]

RANKL [3] = experiment: RANKL mRNA in purified mammary epithelial cells by qRT-PCR after MPA pellet implantation; type: in vivo, mouse
Procedure: as §1
a-d, Induction of RANKL expression by the progesterone-derivative MPA. […] Numbers indicate amino acid residues. c, Expression of total (t) RANKL, RANKL1, RANKL2, and RANKL3 mRNA in purified mammary epithelial cells after three days MPA treatment. β-actin is shown as a control. d, Representative agarose gel of RT-PCR products as in c. e, mRNA expression of various proteases known to shed RANKL from the surface of cells. mRNA was determined in purified mammary epithelial cells by qRT-PCR three days after MPA implantation. […]
a,b, MPA induces RANKL expression in mammary epithelial cells. Nulliparous wild type females were treated with oral gavage of DMBA or oil vehicle, s.c. implanted with slow-release MPA pellets, or treated with sham surgery. a, RANKL mRNA was determined in purified mammary epithelial cells by qRT-PCR 3 days after implantation/oral gavage. […]

CC(=O)O[C@]1(C(C)=O)CC[C@H]2[C@@H]3C[C@H](C)C4=CC(=O)CC[C@]4(C)[C@H]3CC[C@@]21C [MPA, medroxyprogesterone acetate]
RANKL mRNA induction in SKBR3 cells [1]: only slightly increased | 19 kDa soluble form of RANKL, Western blotting of isolated mammary epithelial cells (RANKL [2]; 3 and 6 days after MPA pellet implantation): induction of the 19 kDa soluble form of RANKL | RANKL protein in the mammary gland, immunohistochemistry (RANKL [2]; 3 d MPA treatment): induction of RANKL protein in the mammary gland | RANKL protein production (RANKL [2]; female control mice, day 3 after s.c. MPA implantation): triggers substantial production of RANKL protein | RANKL protein induction (RANKL [2]; prolactin receptor mutants (PRL-R KO), day 3 after s.c. MPA implantation): failed to detect RANKL induction | mRNA of proteases known to shed RANKL (MMP14, ADAM17/TACE) (RANKL [3]; 3 days after MPA implantation, qRT-PCR): induction of MMP14 and ADAM17/TACE | RANKL mRNA and protein expression in purified mammary epithelial cells (RANKL [3]; 3 days after implantation/oral gavage, qRT-PCR and Western blot): induced RANKL mRNA and protein expression | mRNA expression of RANK, OPG, PTHrP and TRAIL in isolated mammary epithelial cells (RANKL [3]; MPA pellets implanted): not changed | induction of RANKL mRNA in isolated mammary epithelial cells (RANKL [3]; s.c. slow-release MPA pellets, 3 days, vs sham, wild type females): more than 2000 fold
